The values below come from patent US12582599B2, “Methods for treatment of bladder cancer with gemcitabine” (TARIS Biomedical LLC, priority 2014, dated 2026).

A short description of series [1]: 14C gemcitabine bladder perfusion vs IV bolus, blood/urine/tissue content. The format is in vivo, male Sprague Dawley rats. How it is done:
A study was conducted on male Sprague Dawley rats administering ^14C gemcitabine by intra-urinary bladder cannula, over a 6- or 24-hour continuous perfusion, or by a single IV bolus. The 6- and 24-hour continuous perfusions perfused 6.9 and 26.6 mg, respectively, of gemcitabine into the bladder. The single IV bolus included 5.0 mg of gemcitabine. Blood (FIG. 8), urine, and tissue samples (e.g., bladder, prostate) (FIGS. 7 and 9) were collected and analyzed for gemcitabine content. The results are illustrated in FIGS. 7-9. […] The gemcitabine levels observed for each of the bladder epithelium, lamina propria, muscularis, and adventitia are shown in FIG. 14, which also illustrates a target effective range for the gemcitabine tissue concentration.

Series [2] is described as follows: Gemcitabine release systems vs intravesical instillation in hounds. The settings on record: intravesical instillation mimicking standard clinical doses. The class given is in vivo, large mixed breed hounds. How it is done: Two gemcitabine release systems (devices as shown in FIGS. 1A-1B) designed to release therapeutic levels (4 mg/day and 40 mg/day) into the urine were screened. The devices used either laser-drilled orifices or punched orifices for release of the gemcitabine. The systems tested were compared to intravesical instillations which were designed to mimic the standard intravesical doses used clinically. The test animals were large mixed breed hounds, with N=3 for each group.
In vivo, one system yielded very low urine and tissue concentrations but was well tolerated by the test animal. The other system produced target urine concentration levels but was poorly tolerated by the test animal. Urine profiles were also variable and the duration of drug release was unacceptably short.

The conditions of series [3]: minipig, in vivo. Here is the method: Varying concentrations of gemcitabine were perfused into pigs for 7 days, N=5 (2 males and 3 females per treatment group). The perfusion animals were dosed at concentrations selected to bracket the target doses for bladder cancer in humans. For comparison, a gemcitabine releasing device (as shown in FIGS. 1A-1B) with large bore end caps (restraining plugs with a large aperture therethrough for drug release) with an intermediate in vitro release rate was deployed in a separate group of animals.

Consider `Nc1ccn([C@@H]2O[C@H](CO)[C@@H](O)C2(F)F)c(=O)n1` [gemcitabine, 2′,2′-difluorodeoxycytidine], for which the “gemcitabine levels in bladder tissue” value in series [1] (6- or 24-hour continuous bladder perfusion, sustained urine concentrations) is “at or exceed therapeutic concentrations”. In addition, the “concentration of gemcitabine in the bladder” value in series [1] (24 hours after a clinically relevant IV dose, compared with perfusion) was “significantly lower concentration”. Also, in series [1] (continuous delivery by intravesical administration), the plasma/systemic exposure entry is reported as “without significant plasma/systemic exposure”. The urothelial lesions result in series [2] is on record as “significant urothelial lesions”. Further, the tolerability result in series [3] is on record as “tolerated gemcitabine well”.
